Test results as given in ChEMBL document CHEMBL5338785, “Development of Aromatic-Linked Diamino Acid Antimicrobial Peptide Mimics with Low Hemolytic Toxicity and Excellent Activity against Methicillin-Resistant Staphylococcus aureus (MRSA)” (J Med Chem, 2023).
The source made the active and inactive calls. The calls are words filed in the database; no cut-off is given here.

Columns and labels:
Escherichia coli [1] = test: Antibacterial activity against Escherichia coli assessed as bacterial growth inhibition; type: functional
Staphylococcus aureus [2] = test: Antibacterial activity against methicillin-resistant Staphylococcus aureus assessed as bacterial growth inhibition; type: functional
Enterococcus faecalis [3] = test: Antibacterial activity against Enterococcus faecalis assessed as bacterial growth inhibition; type: functional
[4] = tested on: Stenotrophomonas maltophilia; test: Antibacterial activity against Stenotrophomonas maltophilia assessed as bacterial growth inhibition; type: functional
[5] = Hemolytic activity in mammalian RBC assessed as hemolysis; type: toxicity, cell-based, Erythrocyte; settings: mammalia, mammalian red blood cells
[6] = Selectivity index, ratio of HC50 for hemolytic activity in mammalian RBC to MIC for antibacterial activity against methicillin-resistant Staphylococcus aureus assessed as bacterial growth inhibition; type: toxicity; settings: mammalian red blood cells
[7] = tested on: Stenotrophomonas maltophilia; test: Antibacterial activity against Stenotrophomonas maltophilia assessed as bacterial growth inhibition incubated for 18 hrs by CLSI protocol based Mueller-Hinton broth assay; type: functional; settings: Stenotrophomonas maltophilia, read-out: MIC
Staphylococcus aureus [8] = test: Antibacterial activity against methicillin-resistant Staphylococcus aureus assessed as bacterial growth inhibition in presence of phosphatidylglycerol incubated for 18 hrs by checkerboard microdilution assay; type: functional, organism-based
Staphylococcus aureus [9] = test: Induction of intracellular ROS accumulation in methicillin-resistant Staphylococcus aureus assessed as increase in fluorescence intensity incubated for 30 mins by DCFH-DA dye based fluorescence assay; type: functional, organism-based; settings: dose 0.125-8 µg/ml
[10] = Toxicity in SPF Kunming mouse assessed as lethal dose administered for 3 days; settings: in vivo, 72 h, time 3 day
Staphylococcus aureus [11] = test: In vivo antibacterial activity against methicillin-resistant Staphylococcus aureus infected in SPF Kunming mouse assessed as reduction in amount of bacteria measure per abscess at 5 mg/kg ,ip administered every 12 hrs for 3 consecutive days; type: functional; settings: time 3 day
Staphylococcus aureus [12] = test: Induction of cytoplasmic membrane depolarization in methicillin-resistant Staphylococcus aureus assessed as enhancement of fluorescence intensity measured at 1 min interval for 16 mins by DiSC3(5) dye based fluorescence method; type: functional, organism-based; settings: dose 0.5-16 µg/ml
Staphylococcus aureus [13] = test: Antibacterial activity against methicillin-resistant Staphylococcus aureus assessed as bacterial growth inhibition in presence of phosphoethanolamine incubated for 18 hrs by checkerboard microdilution assay; type: functional, organism-based
Staphylococcus aureus [14] = test: Antibacterial activity against methicillin-resistant Staphylococcus aureus assessed as resistance development at 0.5 to 1 ug/ml measured after 20 days by resistance development assay; type: functional, organism-based; settings: dose 0.5-1 µg/ml, time 20.0 day
[15] = Selectivity index, ratio of HC50 for hemolytic activity in sheep RBC to MIC for antibacterial activity against methicillin-resistant Staphylococcus aureus assessed as bacterial growth inhibition; type: toxicity; settings: sheep red blood cells
Staphylococcus aureus [16] = test: Antibacterial activity against methicillin-resistant Staphylococcus aureus assessed as bacterial growth inhibition incubated for 18 hrs by CLSI protocol based Mueller-Hinton broth assay; type: functional; settings: Staphylococcus aureus, read-out: MIC
[17] = Toxicity in HUVEC cells assessed as live cells by measuring increase in green fluorescence at 16 ug/ml incubated for 24 hrs by calcein AM and propidium iodide staining based fuorescence microscopic analysis; type: cell-based; settings: human, dose 16 µg/ml
[18] = Cytotoxicity against HUVEC cells assessed as reduction in cell viability incubated for 72 hrs by CCK8 assay; type: toxicity, cell-based; settings: human
Escherichia coli [19] = test: Antibacterial activity against Escherichia coli assessed as bacterial growth inhibition incubated for 18 hrs by CLSI protocol based Mueller-Hinton broth assay; type: functional; settings: Escherichia coli, read-out: MIC
Pseudomonas aeruginosa = test: Antibacterial activity against carbapenems-resistant Pseudomonas aeruginosa expressing blaVIM-1 clinical isolates assessed as bacterial growth inhibition incubated for 18 hrs by CLSI protocol based Mueller-Hinton broth assay; type: functional
Enterococcus faecalis [20] = test: Antibacterial activity against Enterococcus faecalis assessed as bacterial growth inhibition incubated for 18 hrs by CLSI protocol based Mueller-Hinton broth assay; type: functional; settings: Enterococcus faecalis, 18 h, read-out: MIC
Staphylococcus aureus [21] = test: Induction of cytoplasmic membrane depolarization in methicillin-resistant Staphylococcus aureus assessed as fold increase in fluorescence intensity at 16 ug/ml measured at 1 min interval for 16 mins by DiSC3(5) dye based fluorescence method; type: functional; settings: dose 16 µg/ml
Escherichia coli [22] = test: Antibacterial activity against carbapenems-resistant Escherichia coli expressing blaNDM-3 clinical isolates assessed as bacterial growth inhibition incubated for 18 hrs by CLSI protocol based Mueller-Hinton broth assay; type: functional
[23] = Selectivity index, ratio of HC50 for hemolytic activity in sheep RBC to IC50 for antibacterial activity against Enterococcus faecalis assessed as bacterial growth inhibition; type: toxicity; settings: sheep red blood cells
Staphylococcus aureus [24] = test: Antibacterial activity against methicillin-resistant Staphylococcus aureus assessed as fold decrease in MIC in presence of NAC incubated for 18 hrs by CLSI protocol based Mueller-Hinton broth assay; type: functional
[25] = Selectivity index, ratio of HC50 for hemolytic activity in sheep RBC to IC50 for antibacterial activity against Escherichia coli assessed as bacterial growth inhibition; type: toxicity; settings: sheep red blood cells
Staphylococcus aureus [26] = test: Induction of morphological changes in methicillin-resistant Staphylococcus aureus assessed as appearance of shrunken cell surface at 8 ug/ml incubated for 4 hrs by SEM analysis; type: functional, organism-based; settings: dose 8.0 µg/ml
[27] = Hemolytic activity in mammalian RBC assessed as hemolysis at 320 ug/ml incubated for 1 hr by microplate reader analysis; type: toxicity, cell-based, Erythrocyte; settings: mammalia, mammalian red blood cells, at 320 µg/mL, read-out: Activity
[28] = Toxicity in HUVEC cells assessed as morphological changes at 16 ug/ml incubated for 24 hrs by optical microscopy imaging analysis; type: cell-based; settings: human, dose 16 µg/ml
Staphylococcus aureus [29] = test: Induction of morphological changes in methicillin-resistant Staphylococcus aureus assessed as appearance of wrinkled cell surface at 8 ug/ml incubated for 4 hrs by SEM analysis; type: functional, organism-based; settings: dose 8.0 µg/ml
Escherichia coli [30] = test: Antibacterial activity against carbapenems-resistant Escherichia coli expressing blaNDM-5 clinical isolates assessed as bacterial growth inhibition incubated for 18 hrs by CLSI protocol based Mueller-Hinton broth assay; type: functional
Staphylococcus aureus [31] = test: Antibacterial activity against methicillin-resistant Staphylococcus aureus assessed as bacterial growth inhibition in presence of phosphatidylcholine incubated for 18 hrs by checkerboard microdilution assay; type: functional, organism-based
[32] = Metabolic stability in SPF Kunming mouse assessed as half life at 5 mg/kg/day, iv; type: ADME, organism-based; settings: in vivo
Staphylococcus aureus [33] = test: Bactericidal activity against methicillin-resistant Staphylococcus aureus assessed as decrease in viable count measured up to 4 hrs by time-killing kinetics assay; type: functional, organism-based; settings: dose 2-4 µg/ml
Enterococcus faecium = test: Antibacterial activity against Enterococcus faecium clinical isolates assessed as bacterial growth inhibition incubated for 18 hrs by CLSI protocol based Mueller-Hinton broth assay; type: functional
Staphylococcus aureus [34] = test: In vivo antibacterial activity against methicillin-resistant Staphylococcus aureus infected in SPF Kunming mouse assessed as reduction in neutrophils in skin tissue at 10 mg/kg ,ip administered every 12 hrs for 3 consecutive days; type: functional, organism-based; settings: time 3.0 day
Staphylococcus aureus [35] = test: Antibacterial activity against methicillin-resistant Staphylococcus aureus clinical isolates assessed as bacterial growth inhibition incubated for 18 hrs by CLSI protocol based Mueller-Hinton broth assay; type: functional
[36] = Selectivity index, ratio of HC50 for hemolytic activity in sheep RBC to IC50 for antibacterial activity against Salmonella enterica assessed as bacterial growth inhibition; settings: sheep red blood cells
Staphylococcus aureus [37] = test: In vivo antibacterial activity against methicillin-resistant Staphylococcus aureus infected in SPF Kunming mouse assessed as reduction in amount of bacteria measured per abscess at 10 mg/kg ,ip administered every 12 hrs for 3 consecutive days; type: functional; settings: time 3 day
Staphylococcus aureus [38] = test: Bactericidal activity against methicillin-resistant Staphylococcus aureus assessed as reduction in turbidity at 2 to 4 ug/ml measured after 6 hrs; type: functional, organism-based; settings: dose 2-4 µg/ml
Staphylococcus aureus [39] = test: Induction of intracellular ROS accumulation in methicillin-resistant Staphylococcus aureus assessed as fold increase in fluorescence intensity at 0.5 ug/ml incubated for 30 mins by DCFH-DA dye based fluorescence assay; type: functional; settings: dose 0.5 µg/ml
Escherichia coli [40] = test: Antibacterial activity against carbapenems-resistant Escherichia coli expressing blaNDM-9 clinical isolates assessed as bacterial growth inhibition incubated for 18 hrs by CLSI protocol based Mueller-Hinton broth assay; type: functional
Staphylococcus aureus [41] = test: Bactericidal activity against methicillin-resistant Staphylococcus aureus assessed as decrease in viable count at 2 to 4 ug/ml by time-killing kinetics assay; type: functional, organism-based; settings: dose 2-4 µg/ml, time <= 4.0 hrs, TDE = time-dependent effect
[42] = Hemolytic activity in sheep RBC assessed as hemolysis incubated for 1 hr by microplate reader method; type: toxicity, cell-based, Ovis aries, Erythrocyte; settings: sheep red blood cells
Citrobacter freundii = test: Antibacterial activity against carbapenems-resistant Citrobacter freundii expressing blaNDM-1 clinical isolates assessed as bacterial growth inhibition incubated for 18 hrs by CLSI protocol based Mueller-Hinton broth assay; type: functional
[43] = Hemolytic activity in human erythrocytes assessed as hemolysis; type: toxicity, cell-based, Erythrocyte
[44] = Selectivity index, ratio of HC50 for hemolytic activity in human erythrocytes to MIC for antibacterial activity against methicillin-resistant Staphylococcus aureus assessed as bacterial growth inhibition; type: toxicity, cell-based
[45] = Hemolytic activity in human RBC assessed as hemolysis incubated for 1 hr; type: toxicity, cell-based, Erythrocyte; settings: human red blood cells
Staphylococcus aureus [46] = test: Antibacterial activity against methicillin-resistant Staphylococcus aureus assessed as bacterial growth inhibition incubated for 24 hrs by Luria-Bertani broth based method; type: functional
[47] = Selectivity index, ratio of HC50 for hemolytic activity in human RBC to MIC for antibacterial activity against methicillin-resistant Staphylococcus aureus assessed as bacterial growth inhibition; type: toxicity; settings: human red blood cells

CCCCCCN(CCCCCCCCCCCCN(CCCCCC)C(=O)[C@@H](N)CCCCN)C(=O)[C@@H](N)CCCCN.Cl.Cl.Cl.Cl
MIC (Escherichia coli [1]): 1 µg/mL | MIC (Staphylococcus aureus [2]): 2 µg/mL | MIC (Enterococcus faecalis [3]): 1 µg/mL | MIC [4]: 1 µg/mL

CCCCCCCC[N+](C)(C)CCCCOc1ccc(OCCCC[N+](C)(C)CCCCCCCC)cc1.[Br-].[Br-]
HC50 [5]: 1210 µg/mL | MIC (Staphylococcus aureus [2]): 0.25 µg/mL | selectivity ratio [6]: 4840

CCCCCCN(CCCOc1ccccc1-c1ccccc1OCCCN(CCCCCC)C(=O)[C@@H](N)CCCCN)C(=O)[C@@H](N)CCCCN.Cl.Cl.Cl.Cl
MIC [7]: 2 µg/mL | inhibition (Staphylococcus aureus [8]): Active | Activity (Staphylococcus aureus [9]): Dose-Dependent Effect | LD50 [10]: > 200 mg/kg/day | Activity (Staphylococcus aureus [11]): 758577.6 CFU | Activity (Staphylococcus aureus [12]): Active | inhibition (Staphylococcus aureus [13]): inactive | Activity (Staphylococcus aureus [14]): Active | selectivity ratio [15]: > 2000 | MIC (Staphylococcus aureus [16]): 0.5 µg/mL | Activity [17]: Non-Toxic | CC50 at 72 h [18]: 24.2 µg/mL | MIC (Escherichia coli [19]): 2 µg/mL | MIC (Pseudomonas aeruginosa): 2 µg/mL | MIC (Enterococcus faecalis [20]): 0.5 µg/mL | fold change (FC) (Staphylococcus aureus [21]): 10 | MIC (Escherichia coli [22]): 2 µg/mL | selectivity ratio [23]: > 2000 | fold change (FC) (Staphylococcus aureus [24]): 16 | selectivity ratio [25]: > 500 | Activity (Staphylococcus aureus [26]): Active | hemolysis at 1 h, 320 ug/ml [27]: < 1% | Activity [28]: Non-Toxic | Activity (Staphylococcus aureus [29]): Active | MIC (Escherichia coli [30]): 2 µg/mL | inhibition (Staphylococcus aureus [31]): inactive | half-life [32]: 4.21 h | Activity (Staphylococcus aureus [33]): Dose-Dependent Effect | MIC50 (Enterococcus faecium): 1 µg/mL | MIC90 (Enterococcus faecium): 2 µg/mL | Activity (Staphylococcus aureus [34]): Active | MIC50 (Staphylococcus aureus [35]): 1 µg/mL | MIC90 (Staphylococcus aureus [35]): 2 µg/mL | selectivity ratio [36]: > 500 | Activity (Staphylococcus aureus [37]): 46773.51 CFU | Activity (Staphylococcus aureus [38]): Active | fold change (FC) (Staphylococcus aureus [39]): 3.4 | MIC (Escherichia coli [40]): 2 µg/mL | Activity (Staphylococcus aureus [41]): Tde | HC50 at 1 h [42]: > 1000 µg/mL | MIC (Citrobacter freundii): 2 µg/mL

CCCCCCN(Cc1ccc(-c2ccc(CN(CCCCCC)C(=O)[C@@H](N)CCCCN)cc2)cc1)C(=O)[C@@H](N)CCCCN.O=C(O)C(F)(F)F.O=C(O)C(F)(F)F.O=C(O)C(F)(F)F.O=C(O)C(F)(F)F
MIC [7]: 4 µg/mL | selectivity ratio [15]: 138 | MIC (Staphylococcus aureus [2]): 3.1 µg/mL | MIC (Staphylococcus aureus [16]): 2 µg/mL | CC50 at 72 h [18]: 14.2 µg/mL | MIC (Escherichia coli [19]; 18 h): 4 µg/mL | MIC (Enterococcus faecalis [20]): 2 µg/mL | HC50 [43]: 230 µg/mL | selectivity ratio [44]: 74.2 | HC50 at 1 h [42]: 276 µg/mL

CCCCCCCC[N+](C)(C)CC(=O)NCCCCCCNC(=O)C[N+](C)(C)CCCCCCCC.[Br-].[Br-]
HC50 at 1 h [45]: 780 µg/mL | MIC (Staphylococcus aureus [46]): 1.9 µg/mL | selectivity ratio [47]: 410
